Test: recombinant barcode read abundance after kanamycin selection (control-corrected) (log10(CPM+1)); higher = more efficient recombination; sequences stand for … in AGTGCAGAGAAAATCGGCCAGTTTTCTCTGCCTGCAGTCCGCATGCCGT…AGATTTATGCAGCGGACTGCCTTTCTCCCAAAGTGATAAACCGGACAGTATCATGGACCGGTTTTCCCGGTAATCCGTATTTGCAAGGTTGGTTTCACT; site = the 11-nt target
How it was run: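 For this pooled screen, each oligo contained a promoter, a target, a barcode and the J23119-driven first 104 bases of the bridge RNA. Gibson cloning placed it into a vector supplying the remaining 73 bp and a T7-inducible recombinase, and the pool was co-electroporated into E. coli with a donor plasmid. Recombination efficiency is derived from barcode counts per million at recombinant junctions after averaging and control correction, and is expressed on a log scale as log10(CPM+1), with selection on chloramphenicol/ampicillin/kanamycin plus 0.1 mM IPTG against a chloramphenicol/ampicillin LB agar control.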
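Also: IS621 recombinase and bridge RNA in Escherichia coli cells.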

| Sequence | recombinant barcode read abundance (log10) |
| --- | --- |
| TCGGACACTTGGGTTCTAACCTGTTGCCA (site TGGGACTCTTG) | 0.0505 |
| TCGGAGGCTTGGGTTCTAACCTGTTGCTG (site TCAGAGGCTCA) | 0.774 |
| TCGGAGGCTTGGGTTCTAACCTGTTGCTG (site TCCGAGGCTCA) | 0.325 |
| TCGGAGGCTTGGGTTCTAACCTGTTGCTG (site TCGGAGGCTCA) | 0.442 |
| TCGGAGGCTTGGGTTCTAACCTGTTGCTG (site TCTGAGGCTCA) | 0.374 |
| TCGGAGTCTTGGGTTCTAACCTGTTGCCT (site TCGGAGTCTAA) | 0.128 |
| TCGGAGTCTTGGGTTCTAACCTGTTGCCT (site TCGGAGTCTAC) | 1.06 |
| TCGGAGTCTTGGGTTCTAACCTGTTGCCT (site TCGGAGTCTAG) | 2.23 |
| TCGGAGTCTTGGGTTCTAACCTGTTGCCT (site TCGGAGTCTAT) | 0.503 |
| TCGGATACTTGGGTTCTAACCTGTTGCCA (site TAGGACACTTG) | 0.0618 |
| TCGGATACTTGGGTTCTAACCTGTTGCCA (site TCGGATACTTG) | 0.456 |
| TCGGCCTCTTGGGTTCTAACCTGTTGCTA (site CGTCTAGCTAT) | 0.054 |
| TCGGCCTCTTGGGTTCTAACCTGTTGCTA (site TCGGCCTCTTA) | 0.877 |
| TCGGCGACTTGGGTTCTAACCTGTTGCCT (site TCAGCGACTAG) | 0.11 |
| TCGGCGACTTGGGTTCTAACCTGTTGCCT (site TCCGCGACTAG) | 0.0866 |
| TCGGCGACTTGGGTTCTAACCTGTTGCCT (site TCGGCGACTAG) | 0.0143 |
| TCGGCGACTTGGGTTCTAACCTGTTGCCT (site TCTGCGACTAG) | 0.291 |
| TCGGGAACTTGGGTTCTAACCTGTTGCCT (site TCGCGAACTAG) | 0.502 |
| TCGGGAACTTGGGTTCTAACCTGTTGCCT (site TCGGGAACTAG) | 0.34 |
| TCGGGATCTTGGGTTCTAACCTGTTGCCT (site ACGGGATCTAG) | 0.365 |
| TCGGGATCTTGGGTTCTAACCTGTTGCCT (site CCGGGATCTAG) | 0.184 |
| TCGGGATCTTGGGTTCTAACCTGTTGCCT (site GCGGGATCTAG) | 0.0188 |

| Sequence | recombinant barcode read abundance (log10) |
| --- | --- |
| TCGGGATCTTGGGTTCTAACCTGTTGCCT (site TCGGGATCTAG) | 1.05 |
| TCGGTGACTTGGGTTCTAACCTGTTGCCT (site ACGGTGACTAG) | 0.658 |
| TCGGTGACTTGGGTTCTAACCTGTTGCCT (site CCGGTGACTAG) | 0.0364 |
| TCGGTGACTTGGGTTCTAACCTGTTGCCT (site GCGGTGACTAG) | 0.0708 |
| TCGGTGACTTGGGTTCTAACCTGTTGCCT (site TCGGTGACTAG) | 0.87 |
| TCGTACCCTTGGGTTCTAACCTGTTGCGA (site TCGAACCCTTC) | 0.256 |
| TCGTACCCTTGGGTTCTAACCTGTTGCGA (site TCGCACCCTTC) | 0.0875 |
| TCGTACCCTTGGGTTCTAACCTGTTGCGA (site TCGGACCCTTC) | 0.0548 |
| TCGTACCCTTGGGTTCTAACCTGTTGCGA (site TCGTACCCTTC) | 0.617 |
| TCGTCTCCTTGGGTTCTAACCTGTTGCTT (site TCGTCTCCTAA) | 0 |
| TCGTCTCCTTGGGTTCTAACCTGTTGCTT (site TTATCTCCTAA) | 0.386 |
| TCGTGCACTTGGGTTCTAACCTGTTGCCT (site TCGTGCACTAG) | 0.215 |
| TCGTGCACTTGGGTTCTAACCTGTTGCCT (site TCGTGCCCTAG) | 0.448 |
| TCGTGCACTTGGGTTCTAACCTGTTGCCT (site TCGTGCGCTAG) | 0.0852 |
| TCGTGCACTTGGGTTCTAACCTGTTGCCT (site TCGTGCTCTAG) | 0.178 |
| TCGTGCCCTTGGGTTCTAACCTGTTGCTT (site TCGTGCCCTAA) | 0.0384 |
| TCGTGCCCTTGGGTTCTAACCTGTTGCTT (site TCGTGCCCTCA) | 1.5 |
| TCGTGCTCTTGGGTTCTAACCTGTTGCCT (site TCGTGCACTAG) | 0.0667 |
| TCGTGCTCTTGGGTTCTAACCTGTTGCCT (site TCGTGCCCTAG) | 0.282 |
| TCGTGCTCTTGGGTTCTAACCTGTTGCCT (site TCGTGCGCTAG) | 0.193 |
| TCGTGCTCTTGGGTTCTAACCTGTTGCCT (site TCGTGCTCTAG) | 0.0894 |
| TCTAACCCTTGGGTTCTAACCTGTTGCAT (site TCTAAACCTAT) | 0.0654 |

| Sequence | recombinant barcode read abundance (log10) |
| --- | --- |
| TCTAACCCTTGGGTTCTAACCTGTTGCAT (site TCTAACCCTAT) | 0.251 |
| TCTAACCCTTGGGTTCTAACCTGTTGCAT (site TCTAAGCCTAT) | 0.028 |
| TCTAACCCTTGGGTTCTAACCTGTTGCAT (site TCTAATCCTAT) | 0.0655 |
| TCTAATCCTTGGGTTCTAACCTGTTGCAT (site TCTAAACCTAT) | 0.11 |
| TCTAATCCTTGGGTTCTAACCTGTTGCAT (site TCTAACCCTAT) | 0.0519 |
| TCTAATCCTTGGGTTCTAACCTGTTGCAT (site TCTAAGCCTAT) | 0.0992 |
| TCTAATCCTTGGGTTCTAACCTGTTGCAT (site TCTAATCCTAT) | 0.025 |
| TCTAATTCTTGGGTTCTAACCTGTTGCAT (site TCTAATTCTAT) | 0.0913 |
| TCTAATTCTTGGGTTCTAACCTGTTGCAT (site TCTGACTCTAT) | 0.186 |
| TCTAATTCTTGGGTTCTAACCTGTTGCGT (site TCTAATTCTAC) | 0.095 |
| TCTAATTCTTGGGTTCTAACCTGTTGCGT (site TCTCATTCTAC) | 0.162 |
| TCTAATTCTTGGGTTCTAACCTGTTGCGT (site TCTGATTCTAC) | 0.899 |
| TCTAATTCTTGGGTTCTAACCTGTTGCGT (site TCTTATTCTAC) | 0.047 |
| TCTAGAGCTTGGGTTCTAACCTGTTGCCT (site TCTAGAACTAG) | 0.0712 |
| TCTAGAGCTTGGGTTCTAACCTGTTGCCT (site TCTAGACCTAG) | 0.228 |
| TCTAGAGCTTGGGTTCTAACCTGTTGCCT (site TCTAGAGCTAG) | 0.0183 |
| TCTAGAGCTTGGGTTCTAACCTGTTGCCT (site TCTAGATCTAG) | 0.339 |
| TCTAGGACTTGGGTTCTAACCTGTTGCAA (site CGACAATCTAA) | 0.29 |
| TCTAGGACTTGGGTTCTAACCTGTTGCAA (site TCTAGGACTTT) | 0.52 |
| TCTCACGCTTGGGTTCTAACCTGTTGCCT (site TCGCACGCTAG) | 0.0772 |
| TCTCACGCTTGGGTTCTAACCTGTTGCCT (site TCTCACGCTAG) | 0.964 |
| TCTCACTCTTGGGTTCTAACCTGTTGCCT (site TCACACTCTAG) | 0.0111 |

| Sequence | recombinant barcode read abundance (log10) |
| --- | --- |
| TCTCACTCTTGGGTTCTAACCTGTTGCCT (site TCCCACTCTAG) | 0.504 |
| TCTCACTCTTGGGTTCTAACCTGTTGCCT (site TCGCACTCTAG) | 0.0924 |
| TCTCACTCTTGGGTTCTAACCTGTTGCCT (site TCTCACTCTAG) | 1.54 |
| TCTCATGCTTGGGTTCTAACCTGTTGCAT (site GACGGCACTCC) | 0.0135 |
| TCTCATGCTTGGGTTCTAACCTGTTGCAT (site TCTCATGCTAT) | 0.224 |
| TCTCGGCCTTGGGTTCTAACCTGTTGCCT (site TCTCAGCCTAG) | 0.0701 |
| TCTCGGCCTTGGGTTCTAACCTGTTGCCT (site TCTCCGCCTAG) | 0.394 |
| TCTCGGCCTTGGGTTCTAACCTGTTGCCT (site TCTCGGCCTAG) | 0.202 |
| TCTCGGCCTTGGGTTCTAACCTGTTGCCT (site TCTCTGCCTAG) | 0.0561 |
| TCTGACTCTTGGGTTCTAACCTGTTGCAT (site TCTAATTCTAT) | 0.0501 |
| TCTGACTCTTGGGTTCTAACCTGTTGCAT (site TCTGACTCTAT) | 1.59 |
| TCTGAGTCTTGGGTTCTAACCTGTTGCTG (site GCTGAGGCTCA) | 0.141 |
| TCTGAGTCTTGGGTTCTAACCTGTTGCTG (site TCTGAGTCTCA) | 0.858 |
| TCTGGAGCTTGGGTTCTAACCTGTTGCAG (site CCAGGAGCTCT) | 0.0636 |
| TCTGGAGCTTGGGTTCTAACCTGTTGCAG (site TCTGGAGCTCT) | 0.938 |
| TCTGGGGCTTGGGTTCTAACCTGTTGCCG (site TCTGGGGCTCA) | 0.536 |
| TCTGGGGCTTGGGTTCTAACCTGTTGCCG (site TCTGGGGCTCC) | 1.44 |
| TCTGGGGCTTGGGTTCTAACCTGTTGCCG (site TCTGGGGCTCG) | 1.89 |
| TCTGGGGCTTGGGTTCTAACCTGTTGCCG (site TCTGGGGCTCT) | 0.618 |
| TCTGGGGCTTGGGTTCTAACCTGTTGCTG (site TCTGGGGCTCA) | 2.04 |

— the supplement of paper PMC11208160
